{"source": "patent US20080051466A1", "about": "“Isoalpha acid based protein kinase modulation cancer treatment” (Metaproteomics, LLC, priority 2006, published 2008)", "key": {"LPS/3T3-L1 adipocytes [1]": {"test_system": "LPS/3T3-L1 adipocytes", "assay": "Adiponectin secretion in LPS/3T3-L1 adipocytes", "type": "cell-based, murine", "conditions": "100 ng/ml LPS; for induction of adiponectin secretion: any of the doses tested"}, "[2]": {"test_system": "insulin-resistant 3T3-L1 adipocytes", "assay": "Adiponectin secretion from insulin-resistant 3T3-L1 adipocytes", "type": "cell-based, murine", "conditions": "50.0 μg/ml", "protocol": "3T3-L1 cells were seeded at an initial density of 1×10^4 cells/cm^2 in 96-well plates. For two days, the cells were allowed grow to reach confluence. Following confluence, the cells were forced to differentiate into adipocytes by the addition of differentiation medium; this medium consisted of (1) 10% FBS/DMEM (high glucose); (2) 0.5 mM methylisobutylxanthine; (3) 0.5 μM dexamethasone and (4) 10 μg/ml insulin (MDI medium). From Day 3 through Day 5, the medium was changed to post-differentiation medium consisting of 10 μg/ml insulin in 10% FBS/DMEM.\nBriefly, on Day 6, cells were maintained in serum-free media containing 0.5% bovine serum albumin (BSA) for three hours and then treated with 1 μg insulin/ml plus solvent or insulin plus test material. […] Twenty-four hours later, the supernatant medium was sampled for adiponectin determination.\n(§1) Adiponectin Assay—The adiponectin secreted into the medium was quantified using the Mouse Adiponectin Quantikine® Immunoassay kit with no modifications (R&D Systems, Minneapolis, Minn.).\nSubstituting {relative adiponectin secretion/[concentration])} for the independent variable v/[S] and {relative adiponectin secretion} for the dependant variable {v}, produced a relationship of the form y=mx+b. […]"}, "[3]": {"test_system": "TNFα-treated 3T3-L1 adipocytes", "assay": "Adiponectin secretion from TNFα-treated 3T3-L1 adipocytes", "type": "cell-based, murine", "conditions": "for increase of adiponectin secretion in the presence of TNFα: optimal concentration; for Concentration of maximum adiponectin secretion: over four doses", "protocol": "3T3-L1 cells were seeded at an initial density of 1×10^4 cells/cm^2 in 96-well plates. For two days, the cells were allowed grow to reach confluence. Following confluence, the cells were forced to differentiate into adipocytes by the addition of differentiation medium; this medium consisted of (1) 10% FBS/DMEM (high glucose); (2) 0.5 mM methylisobutylxanthine; (3) 0.5 μM dexamethasone and (4) 10 μg/ml insulin (MDI medium). From Day 3 through Day 5, the medium was changed to post-differentiation medium consisting of 10% FBS in DMEM. […] On Day 6, the supernatant medium was sampled for adiponectin determination.\nas §1"}, "LPS/3T3-L1 adipocytes [4]": {"test_system": "LPS/3T3-L1 adipocytes", "assay": "IL-6 secretion in LPS/3T3-L1 adipocytes", "type": "cell-based, murine", "conditions": "100 ng LPS/ml, D5 3T3-L1"}, "NF-kBp65": {"test_system": "NF-kBp65", "assay": "NF-kBp65 nuclear translocation in TNFα-treated 3T3-L1 adipocytes", "type": "cell-based, murine", "conditions": "2.5 and 5.0 μg/ml, three or 24 hours following TNFα", "experimental": "Cell Culture and Treatment—Following differentiation 3T3-L1 adipocytes were maintained in post-differentiation medium for an additional 40 days. […] Hops derivatives and the positive control pioglitazone were tested at concentrations of 2.5, and 5.0 μg/ml. Test materials were added 1 hour prior to and nuclear extracts were prepared three and 24 hours following treatment with TNFα.\nELISA-3T3-L1 adipocytes were maintained in growth media for 40 days following differentiation. Nuclear NF-kBp65 was determined using the TransAM™ NF-kB kit from Active Motif (Carlsbad, Calif.) was used with no modifications. Jurkat nuclear extracts provided in the kit were derived from cells cultured in medium supplemented with 50 ng/ml TPA (phorbol, 12-myristate, 13 acetate) and 0.5 μM calcium ionophore A23187 for two hours at 37° C. immediately prior to harvesting.\nProtein assay—Nuclear protein was quantified using the Active Motif Fluorescent Protein Quantification Kit."}, "[5]": {"test_system": "A549 pulmonary epithelial cells", "assay": "PGE2 biosynthesis in A549 cells stimulated by mite dust allergen", "type": "cell-based, human", "conditions": "10 μg/ml, mite dust allergen 1000 ng/ml, 18 h", "protocol": "The filtrate was termed mite dust allergen and used to test for induction of PGE2 biosynthesis in A549 pulmonary epithelial cells.\nMite allergen was added to the culture medium to achieve a final concentration of 1000 ng/ml. Eighteen hours later, the media were sampled for PGE2 determination."}}, "note": "Marks after values point to notes of the source that are not given here."}
{"compound": "CC(=O)Oc1ccccc1C(=O)O", "note": "[Aspirin, aspirin]", "values": [{"measurement": "induction of adiponectin secretion", "setting": "LPS/3T3-L1 adipocytes [1]", "result": "failed to induce adiponectin secretion"}]}
{"compound": "CC(C)CCC1=C(O)C(C(=O)C(C)C)=C(O)C(CCC(C)C)(CCC(C)C)C1=O", "note": "[Hexahydrocolupulone (HHCL)]", "values": [{"measurement": "Adiponectin/IL-6", "setting": "[2]", "result": "0.60#"}]}
{"compound": "COc1ccc2c(c1)c(CC(=O)O)c(C)n2C(=O)c1ccc(Cl)cc1", "note": "[Indomethacin, indomethacin]", "values": [{"measurement": "maximum adiponectin stimulation", "setting": "LPS/3T3-L1 adipocytes [1]; […]", "result": 9, "unit": "%"}, {"measurement": "increase of adiponectin secretion in the presence of TNFα", "setting": "[3]; 10 ng TNFα/ml", "result": 94, "unit": "%"}, {"measurement": "Concentration of maximum adiponectin secretion", "setting": "[3]; 10 ng TNFα/ml", "result": 5.0, "unit": "µg/mL"}, {"measurement": "Concentration of maximum adiponectin secretion", "setting": "[3]; 10 ng TNFα/ml, listed as indomethacin", "result": 2.5, "unit": "µg/mL"}, {"measurement": "Maximum inhibition of IL-6 secretion, % Inhibition", "setting": "LPS/3T3-L1 adipocytes [4]; 5.00 μg/ml", "result": "53* %"}]}
{"compound": "CCc1ccc(CCOc2ccc(CC3SC(=O)NC3=O)cc2)nc1", "note": "(stereo not drawn) [Pioglitazone, pioglitazone]", "values": [{"measurement": "increase of adiponectin secretion in the presence of TNFα", "setting": "[3]; 10 ng TNFα/ml", "result": 80, "unit": "%"}, {"measurement": "Adiponectin Index (relative maximum adiponectin secretion)", "setting": "[3]; 10 ng TNFα/ml, [Adiponectin]Test/[Adiponectin]TNFα control", "result": 1.47}, {"measurement": "Adiponectin Index Observed", "setting": "[3]; 1.0 μg/ml, TNFα/3T3-L1, curcumin/XN combinations, indexed to TNFα control", "result": 1.80}, {"measurement": "IL-6 Index at maximum inhibition", "setting": "LPS/3T3-L1 adipocytes [4]; 5.00 μg/ml (dose of maximum inhibition)", "result": "0.37*"}, {"measurement": "inhibition of the amount of nuclear NF-kBp65", "setting": "NF-kBp65", "result": "did not inhibit"}]}
{"compound": "O=C(O)c1ccccc1O", "note": "[salicylic acid]", "values": [{"measurement": "induction of adiponectin secretion", "setting": "LPS/3T3-L1 adipocytes [1]", "result": "failed to induce adiponectin secretion"}, {"measurement": "IL-6 Index at maximum inhibition", "setting": "LPS/3T3-L1 adipocytes [4]; 50.0 μg/ml (dose of maximum inhibition)", "result": "0.52*"}]}
{"compound": "Beta acids", "values": [{"measurement": "Percent PGE2 Inhibition", "setting": "[5]", "result": 83, "unit": "%"}]}
